Data taken from patent US9493448B2, “Cycloalkane derivatives” (Daiichi Sankyo Company, Limited, priority 2012, dated 2016).

What was measured:
[1] = target: hNav 1.7 (Homo sapiens (Human), UniProt Q15858); assay: Electrophysiological evaluation, automated patch clamp IonWorks Quattro (Population Patch Clamp mode); assay type: cell-based; settings: HEK293A cells stably expressing hNav 1.7/β1/β2; response to second depolarization pulse, pre-pulse potential set to V1/2; read-out: hNav1.7 IC50
[2] = system: mice and rats affected by thermal hyperalgesia; assay: Thermal hyperalgesia assay; assay type: in vivo; settings: oral administration, constant dose, against the vehicle treatment group; latency to escape behaviors after thermal stimulation of hind paw;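 note: measurement times set by the study director and not disclosed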

Chain of hNav 1.7 (Q15858 whole entry): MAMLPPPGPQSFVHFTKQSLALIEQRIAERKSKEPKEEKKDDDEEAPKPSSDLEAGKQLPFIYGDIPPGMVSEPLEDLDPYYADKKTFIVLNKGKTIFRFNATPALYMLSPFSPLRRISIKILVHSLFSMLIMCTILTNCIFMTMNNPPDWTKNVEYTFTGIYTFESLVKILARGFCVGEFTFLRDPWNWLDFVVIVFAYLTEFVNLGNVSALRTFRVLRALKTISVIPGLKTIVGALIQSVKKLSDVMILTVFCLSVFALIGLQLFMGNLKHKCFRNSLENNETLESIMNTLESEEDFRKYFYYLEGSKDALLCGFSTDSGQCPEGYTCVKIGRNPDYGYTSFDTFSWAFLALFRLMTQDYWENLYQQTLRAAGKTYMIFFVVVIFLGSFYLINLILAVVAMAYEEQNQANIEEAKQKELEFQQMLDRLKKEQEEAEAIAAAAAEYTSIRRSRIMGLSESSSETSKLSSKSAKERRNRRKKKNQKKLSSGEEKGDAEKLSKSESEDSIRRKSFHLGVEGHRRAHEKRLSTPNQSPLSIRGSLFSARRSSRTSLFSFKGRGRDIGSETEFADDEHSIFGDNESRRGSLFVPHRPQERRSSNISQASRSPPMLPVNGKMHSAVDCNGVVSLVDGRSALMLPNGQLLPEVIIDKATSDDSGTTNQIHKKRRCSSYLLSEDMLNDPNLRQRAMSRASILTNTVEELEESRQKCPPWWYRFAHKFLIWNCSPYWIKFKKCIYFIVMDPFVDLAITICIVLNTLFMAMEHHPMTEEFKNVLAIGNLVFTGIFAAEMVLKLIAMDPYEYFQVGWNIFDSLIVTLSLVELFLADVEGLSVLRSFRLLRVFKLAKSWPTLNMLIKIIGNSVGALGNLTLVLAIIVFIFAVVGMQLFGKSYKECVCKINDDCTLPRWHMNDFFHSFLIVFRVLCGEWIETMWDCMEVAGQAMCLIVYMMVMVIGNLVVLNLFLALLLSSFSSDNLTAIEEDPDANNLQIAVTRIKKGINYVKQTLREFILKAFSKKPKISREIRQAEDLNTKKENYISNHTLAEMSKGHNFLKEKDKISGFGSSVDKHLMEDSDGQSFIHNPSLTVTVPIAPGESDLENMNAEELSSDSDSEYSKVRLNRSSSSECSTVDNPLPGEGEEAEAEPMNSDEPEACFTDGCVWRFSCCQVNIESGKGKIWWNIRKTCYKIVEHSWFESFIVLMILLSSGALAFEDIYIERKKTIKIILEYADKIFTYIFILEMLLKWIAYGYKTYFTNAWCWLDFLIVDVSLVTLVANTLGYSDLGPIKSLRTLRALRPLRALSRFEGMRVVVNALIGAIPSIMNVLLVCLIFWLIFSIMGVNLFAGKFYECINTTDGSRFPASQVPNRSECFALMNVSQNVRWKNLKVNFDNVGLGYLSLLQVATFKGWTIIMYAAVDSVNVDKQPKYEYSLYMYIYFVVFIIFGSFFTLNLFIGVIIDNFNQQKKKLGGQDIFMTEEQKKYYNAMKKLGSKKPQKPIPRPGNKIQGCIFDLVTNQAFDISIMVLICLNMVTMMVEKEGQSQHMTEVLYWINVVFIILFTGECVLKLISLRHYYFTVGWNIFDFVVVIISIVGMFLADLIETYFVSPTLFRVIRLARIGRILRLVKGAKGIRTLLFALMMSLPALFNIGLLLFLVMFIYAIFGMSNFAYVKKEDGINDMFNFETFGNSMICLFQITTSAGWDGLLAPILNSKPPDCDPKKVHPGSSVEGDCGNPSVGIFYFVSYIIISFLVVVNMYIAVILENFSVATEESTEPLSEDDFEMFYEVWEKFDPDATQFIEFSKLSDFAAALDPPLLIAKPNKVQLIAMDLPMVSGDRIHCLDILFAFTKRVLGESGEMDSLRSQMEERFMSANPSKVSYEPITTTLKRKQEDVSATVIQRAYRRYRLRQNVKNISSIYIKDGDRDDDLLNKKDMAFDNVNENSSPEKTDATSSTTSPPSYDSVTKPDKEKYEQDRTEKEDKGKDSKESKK
Chain of hNav 1.7 (Q07699 19-218 partner): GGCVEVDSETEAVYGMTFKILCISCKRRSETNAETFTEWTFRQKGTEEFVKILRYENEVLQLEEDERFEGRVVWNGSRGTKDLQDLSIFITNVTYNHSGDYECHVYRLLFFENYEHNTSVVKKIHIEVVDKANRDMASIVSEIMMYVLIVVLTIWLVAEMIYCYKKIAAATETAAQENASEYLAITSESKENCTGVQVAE
Chain of hNav 1.7 (O60939 30-215 partner): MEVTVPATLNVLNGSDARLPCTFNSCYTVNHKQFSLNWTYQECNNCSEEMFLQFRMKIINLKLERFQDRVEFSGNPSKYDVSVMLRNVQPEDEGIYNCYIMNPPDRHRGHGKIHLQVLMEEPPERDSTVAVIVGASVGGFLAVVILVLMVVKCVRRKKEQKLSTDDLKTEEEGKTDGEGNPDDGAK

Row | Compound | IC50 [1] [nM] | Ratio of improving pain score (%) [2]
1 | Cn1nccc1[C@H]1CCC(F)(F)C[C@@H]1Oc1ccc(S(=O)(=O)Nc2ccncn2)c(F)c1F (relative stereo) [Example 105, 4-{[(1S*,2R*)-5,5-Difluoro-2-(1-methyl-1H-pyrazol-5-yl)cyclohexyl]oxy}-2,3-difluoro-N-(pyrimidin-4-yl)benzenesulfonamide] | 220 | A (“A” when the rate was 61 to 100%)
2 | Nc1n[nH]cc1[C@H]1CCCC[C@@H]1Oc1ccc(S(=O)(=O)Nc2ccncn2)c(F)c1Cl (relative stereo) [Example 91, 4-{[(1S*,2R*)-2-(3-Amino-1H-pyrazol-4-yl)cyclohexyl]oxy}-3-chloro-2-fluoro-N-(pyrimidin-4-yl)benzenesulfonamide] | 170 | A (“A” when the rate was 61 to 100%)
3 | CCn1nccc1[C@H]1CCC[C@@H]1Oc1cc(F)c(S(=O)(=O)Nc2ccncn2)cc1F (relative stereo) [Example 37, 4-{[(1S*,2R*)-2-(1-Ethyl-1H-pyrazol-5-yl)cyclopentyl]oxy}-2,5-difluoro-N-(pyrimidin-4-yl)benzenesulfonamide] | 210 | C (“C” when the rate was 0 to 30%)
4 | Cn1nccc1[C@H]1CCC[C@@H]1Oc1cc(F)c(S(=O)(=O)Nc2ccncn2)cc1C#N (relative stereo) [Example 62, 5-Cyano-2-fluoro-4-{[(1S*,2R*)-2-(1-methyl-1H-pyrazol-5-yl)cyclopentyl]oxy}-N-(pyrimidin-4-yl)benzenesulfonamide] | 120 | B (“B” when the rate was 31 to 60%)
5 | Cn1nccc1[C@H]1CC(F)(F)C[C@@H]1Oc1cc(F)c(S(=O)(=O)Nc2ccncn2)cc1F (relative stereo) [Example 107, 4-{[(1S*,2R*)-4,4-Difluoro-2-(1-methyl-1H-pyrazol-5-yl)cyclopentyl]oxy}-2,5-difluoro-N-(pyrimidin-4-yl)benzenesulfonamide] | 42 | B (“B” when the rate was 31 to 60%)
6 | CCn1nccc1[C@H]1CCC[C@@H]1Oc1ccc(S(=O)(=O)Nc2ccncn2)c(F)c1F [Example 119, 4-{[(1S,2R)-2-(1-Ethyl-1H-pyrazol-5-yl)cyclopentyl]oxy}-2,3-difluoro-N-(pyrimidin-4-yl)benzenesulfonamide] | 100 | A (“A” when the rate was 61 to 100%)
7 | Cc1cc(S(=O)(=O)Nc2ccncn2)c(F)cc1O[C@H]1CCC(F)(F)C[C@@H]1c1ccnn1C (relative stereo) [Example 126, 4-{[(1S*,2R*)-4,4-Difluoro-2-(1-methyl-1H-pyrazol-5-yl)cyclohexyl]oxy}-2-fluoro-5-methyl-N-(pyrimidin-4-yl)benzenesulfonamide] | 14 | C (“C” when the rate was 0 to 30%)

Continued, in another order:

Row | IC50 [1] [nM] | Compound | Ratio of improving pain score (%) [2]
8 | 40 | Cn1nccc1[C@H]1C[C@H](O)CC[C@@H]1Oc1cc(F)c(S(=O)(=O)Nc2ccncn2)cc1Cl [Example 165, 5-Chloro-2-fluoro-4-{[(1S,2R,4R)-4-hydroxy-2-(1-methyl-1H-pyrazol-5-yl)cyclohexyl]oxy}-N-(pyrimidin-4-yl)benzenesulfonamide] | B (“B” when the rate was 31 to 60%)
9 | 600 | O=S(=O)(Nc1ccncn1)c1ccc(O[C@H]2CC(F)(F)CC[C@@H]2c2cn[nH]c2)cc1F (relative stereo) [Example 147, 4-{[(1S*,2R*)-5,5-Difluoro-2-(1H-pyrazol-4-yl)cyclohexyl]oxy}-2-fluoro-N-(pyrimidin-4-yl)benzenesulfonamide] | C (“C” when the rate was 0 to 30%)
10 | 18 | Cc1cc(S(=O)(=O)Nc2ccncn2)c(F)cc1O[C@H]1CCC[C@@H]1c1ccn[nH]1 [Example 148, 2-Fluoro-5-methyl-4-{[(1S,2R)-2-(1H-pyrazol-5-yl)cyclopentyl]oxy}-N-(pyrimidin-4-yl)benzenesulfonamide] | B (“B” when the rate was 31 to 60%)
